Earlier results in paper PMC11345841, “Exploring 2-Sulfonylpyrimidine Warheads as Acrylamide Surrogates for Targeted Covalent Inhibition: A BTK Story” (Journal of Medicinal Chemistry, 2024).
Like-named read-outs stand apart in the source and are kept apart here.

Test system: 468 human kinases
Conditions: cited from earlier work; for Percent of Control: ref Buhimschi/Crews

## C=CC(=O)N1CCC[C@@H](n2nc(-c3ccc(Oc4ccccc4)cc3)c3c(N)ncnc32)C1 [Compound 1g, Ibrutinib, reference compound]
@1000nM, ZAP70, ref Buhimschi et al. 2018
  %Control: 77%
ABL1(F317I)-nonphosphorylated
  Percent of Control: 30%
ABL1(F317I)-phosphorylated
  Percent of Control: 67%
ABL1(F317L)-nonphosphorylated
  Percent of Control: 25%
ABL1(F317L)-phosphorylated
  Percent of Control: 49%
ABL1(H396P)-nonphosphorylated
  Percent of Control: 18%
ABL1(Q252H)-nonphosphorylated
  Percent of Control: 6.4%
ABL1(Q252H)-phosphorylated
  Percent of Control: 67%
ABL1(Y253F)-phosphorylated
  Percent of Control: 49%
ABL1-nonphosphorylated
  Percent of Control: 9%
ABL2
  Percent of Control: 43%
ASK2 (MAP3K6)
  Percent of Control: 54%
BLK
  Percent of Control: 0.1%
BMX
  Percent of Control: 38%
BRAF(V600E)
  Percent of Control: 59%
BRK (PTK6)
  Percent of Control: 1.4%
BTK
  Percent of Control: 0%
CDK2
  Percent of Control: 66%
CSK
  Percent of Control: 2.4%
CSNK1E
  Percent of Control: 44%
CTK (MATK)
  Percent of Control: 66%
EGFR(E746-A750del)
  Percent of Control: 5.1%
EGFR(G719C)
  Percent of Control: 0.35%
EGFR(G719S)
  Percent of Control: 0.45%
EGFR(L747-E749del, A750P)
  Percent of Control: 0.3%
EGFR(L747-S752del, P753S)
  Percent of Control: 12%
EGFR(L747-T751del,Sins)
  Percent of Control: 1.4%
EGFR(L858R)
  Percent of Control: 1.4%
EGFR(L858R,T790M)
  Percent of Control: 6.9%
EGFR(L861Q)
  Percent of Control: 0.1%
EGFR(S752-I759del)
  Percent of Control: 0%
EGFR(T790M)
  Percent of Control: 0.15%
EGFR
  Percent of Control: 0%
EPHB6
  Percent of Control: 8.6%
ERBB2
  Percent of Control: 0%
ERBB3
  Percent of Control: 0%
ERBB4
  Percent of Control: 0%
ERN1
  Percent of Control: 38%
FGFR1
  Percent of Control: 42%
FGFR2
  Percent of Control: 42%
FGFR3(G697C)
  Percent of Control: 35%
FGFR3
  Percent of Control: 45%
FGR
  Percent of Control: 10%
FLT3(D835H)
  Percent of Control: 18%
FLT3(D835V)
  Percent of Control: 1.9%
FLT3(D835Y)
  Percent of Control: 44%
FLT3(ITD)
  Percent of Control: 55%
FLT3(ITD,D835V)
  Percent of Control: 58%
FLT3(K663Q)
  Percent of Control: 38%
FLT3(N841I)
  Percent of Control: 31%
FLT3(R834Q)
  Percent of Control: 54%
FLT3
  Percent of Control: 26%
FLT4
  Percent of Control: 38%
FRK
  Percent of Control: 11%
FYN
  Percent of Control: 5.3%
HCK
  Percent of Control: 0.3%
ITK
  Percent of Control: 6.8%
KIT(A829P)
  Percent of Control: 21%
KIT(L576P)
  Percent of Control: 42%
KIT(V559D)
  Percent of Control: 31%
KIT
  Percent of Control: 57%
LATS2
  Percent of Control: 66%
LCK
  Percent of Control: 0.2%
LIMK1
  Percent of Control: 41%
LOK (STK10)
  Percent of Control: 41%
LZK (MAP3K13)
  Percent of Control: 58%
MAP3K2
  Percent of Control: 54%
MAP3K15
  Percent of Control: 53%
MEK1 (MAP2K1)
  Percent of Control: 14%
MEK2 (MAP2K2)
  Percent of Control: 21%
MEK5 (MAP2K5)
  Percent of Control: 0.8%
MET(M1250T)
  Percent of Control: 56%
MKK7 (MAP2K7)
  Percent of Control: 0.7%
MKNK2
  Percent of Control: 50%
NDR2 (STK38L)
  Percent of Control: 48%
PDGFRA
  Percent of Control: 48%
PDGFRB
  Percent of Control: 35%
RET(M918T)
  Percent of Control: 14%
RET
  Percent of Control: 9.3%
RIPK2
  Percent of Control: 3.7%
RIPK5 (DSTYK)
  Percent of Control: 15%
SNARK (NUAK2)
  Percent of Control: 68%
SRC
  Percent of Control: 3.2%
SRMS
  Percent of Control: 0%
SRPK1
  Percent of Control: 54%
STK35
  Percent of Control: 55%
STK36
  Percent of Control: 60%
TEC
  Percent of Control: 1.9%
TIE2 (TEK)
  Percent of Control: 58%
TNK1
  Percent of Control: 23%
TNK2
  Percent of Control: 35%
TNNI3K
  Percent of Control: 53%
TRKA (NTRK1)
  Percent of Control: 67%
TRPM6
  Percent of Control: 54%
TTK
  Percent of Control: 40%
TXK
  Percent of Control: 3.8%
VEGFR2 (KDR)
  Percent of Control: 59%
WNK2
  Percent of Control: 65%
YANK2 (STK32B)
  Percent of Control: 49%
YES (YES1)
  Percent of Control: 2.6%
ZAK
  Percent of Control: 38%
